Test results from the NIST ThermoML archive (doi:10.1016/j.jct.2018.07.026).

How the values were obtained:
[1] = molar heat capacity at constant pressure; conditions: 78.8 kPa, Crystal, DSC
[2] = Crystal 1; DTA
[3] = Molar enthalpy of transition or fusion; conditions: Crystal 1; DSC

O=C(O)c1cccc([N+](=O)[O-])c1C(=O)O [3-nitro-1,2-benzenedicarboxylic acid]
[1]
Conditions | molar heat capacity at constant pressure [J/K/mol]
295.15 K | 242.66
296.15 K | 244.28
297.15 K | 245.61
298.15 K | 246.53
299.15 K | 247.02
300.15 K | 248.36
301.15 K | 249.69
302.15 K | 250.75
303.15 K | 251.67
304.15 K | 252.72
305.15 K | 253.35
306.15 K | 253.99
307.15 K | 254.41
308.15 K | 254.83
309.15 K | 255.47
310.15 K | 256.8
311.15 K | 255.96
312.15 K | 257.22
313.15 K | 258
314.15 K | 258.77
315.15 K | 259.12
316.15 K | 260.18
317.15 K | 260.67
318.15 K | 261.31
319.15 K | 261.94
320.15 K | 262.71
321.15 K | 263.56
322.15 K | 264.19
323.15 K | 264.97
324.15 K | 265.67
325.15 K | 266.44
326.15 K | 266.94
327.15 K | 267.57
328.15 K | 268.41
329.15 K | 268.77
330.15 K | 269.4
331.15 K | 269.96
332.15 K | 270.6
333.15 K | 271.23
334.15 K | 271.79
335.15 K | 272.36
336.15 K | 273.27
337.15 K | 272.43
338.15 K | 273.83
339.15 K | 274.4
340.15 K | 275.03
341.15 K | 275.66
342.15 K | 276.44
343.15 K | 277.14
344.15 K | 277.63
345.15 K | 278.34
346.15 K | 278.97
347.15 K | 279.75
348.15 K | 280.38
349.15 K | 280.94
350.15 K | 281.5
351.15 K | 281.72
352.15 K | 282.07
353.15 K | 282.49
354.15 K | 282.91
355.15 K | 283.48
356.15 K | 284.11
357.15 K | 284.32
358.15 K | 285.02
359.15 K | 285.59
360.15 K | 286.22
361.15 K | 286.71
362.15 K | 287.21
363.15 K | 287.7
364.15 K | 288.12
365.15 K | 288.68
366.15 K | 289.32
367.15 K | 289.95
368.15 K | 290.3
369.15 K | 290.86
370.15 K | 291.29
371.15 K | 291.64
372.15 K | 292.06
373.15 K | 292.62
374.15 K | 293.26
375.15 K | 293.47
376.15 K | 294.1
377.15 K | 294.59
378.15 K | 295.23
379.15 K | 295.72
380.15 K | 296.07
381.15 K | 296.57
382.15 K | 296.99
383.15 K | 297.55
384.15 K | 297.9
385.15 K | 298.39
386.15 K | 298.68
387.15 K | 299.24
388.15 K | 299.73
389.15 K | 300.01
390.15 K | 300.86
391.15 K | 301.21
392.15 K | 301.49
393.15 K | 301.84
394.15 K | 302.2
395.15 K | 302.69
396.15 K | 303.25
397.15 K | 303.74
398.15 K | 304.45
399.15 K | 305.22
400.15 K | 305.71
401.15 K | 306.28
402.15 K | 306.84
403.15 K | 307.33
404.15 K | 307.68
405.15 K | 308.25
406.15 K | 308.74
407.15 K | 309.02
408.15 K | 309.73
409.15 K | 310.15
410.15 K | 310.64
411.15 K | 311.13
412.15 K | 311.56

Conditions | Molar enthalpy of transition or fusion [kcal/mol] | Normal melting temperature [°C]
[2] | – | 223.2
[3] | 13.2 | –
